Data taken from ChEMBL document CHEMBL2390893, “Natural product hybrid and its superacid synthesized analogues: dodoneine and its derivatives show selective inhibition of carbonic anhydrase isoforms I, III, XIII and XIV” (Bioorg Med Chem, 2013).
Activity calls are given as the source filed them. The calls are words filed in the database; no cut-off is given here.

Assays:
[1] = molecular target: T1, Carbonic anhydrase 5B, mitochondrial (Homo sapiens, UniProt Q9Y2D0); test: Inhibition of human carbonic anhydrase 5b at >100 uM preincubated for 15 mins by stopped flow CO2 hydrase assay
Carbonic anhydrase 4 [2] = molecular target: T2, Carbonic anhydrase 4 (Homo sapiens, UniProt P22748); test: Inhibition of human carbonic anhydrase 4 preincubated for 15 mins by stopped flow CO2 hydrase assay
Carbonic anhydrase 7 [3] = molecular target: T3, Carbonic anhydrase 7 (Homo sapiens, UniProt P43166); test: Inhibition of human carbonic anhydrase 7 at >100 uM preincubated for 15 mins by stopped flow CO2 hydrase assay
[4] = molecular target: T4, Carbonic anhydrase 5A, mitochondrial (Homo sapiens, UniProt P35218); test: Inhibition of human carbonic anhydrase 5a at >100 uM preincubated for 15 mins by stopped flow CO2 hydrase assay
Carbonic anhydrase 9 [5] = molecular target: T5, Carbonic anhydrase 9 (Homo sapiens, UniProt Q16790); test: Inhibition of human carbonic anhydrase 9 at >100 uM preincubated for 15 mins by stopped flow CO2 hydrase assay
Carbonic anhydrase 3 [6] = molecular target: T6, Carbonic anhydrase 3 (Homo sapiens, UniProt P07451); test: Inhibition of human carbonic anhydrase 3 preincubated for 15 mins by stopped flow CO2 hydrase assay
Carbonic anhydrase 13 = Carbonic anhydrase 13 (Mus musculus, UniProt Q9D6N1); test: Inhibition of mouse carbonic anhydrase 13 preincubated for 15 mins by stopped flow CO2 hydrase assay
Carbonic anhydrase 12 [7] = molecular target: T7, Carbonic anhydrase 12 (Homo sapiens, UniProt O43570); test: Inhibition of human carbonic anhydrase 12 at >100 uM preincubated for 15 mins by stopped flow CO2 hydrase assay
Carbonic anhydrase 1 [8] = molecular target: T8, Carbonic anhydrase 1 (Homo sapiens, UniProt P00915); test: Inhibition of human carbonic anhydrase 1 preincubated for 15 mins by stopped flow CO2 hydrase assay
Target sequence in this assay (P00915 whole entry): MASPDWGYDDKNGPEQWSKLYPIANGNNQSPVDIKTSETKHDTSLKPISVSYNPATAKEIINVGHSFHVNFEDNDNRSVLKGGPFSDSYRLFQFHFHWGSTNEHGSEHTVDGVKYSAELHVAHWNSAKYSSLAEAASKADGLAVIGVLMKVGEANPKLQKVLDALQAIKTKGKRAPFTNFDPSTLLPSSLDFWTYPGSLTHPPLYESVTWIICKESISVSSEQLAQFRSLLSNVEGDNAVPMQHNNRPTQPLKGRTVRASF

Carbonic anhydrase 2 [9] = molecular target: T9, Carbonic anhydrase 2 (Homo sapiens, UniProt P00918); test: Inhibition of human carbonic anhydrase 2 at >100 uM preincubated for 15 mins by stopped flow CO2 hydrase assay
[10] = molecular target: Carbonic anhydrase 6 (Homo sapiens) (UniProt P23280); test: Inhibition of human carbonic anhydrase 6 at >100 uM preincubated for 15 mins by stopped flow CO2 hydrase assay
Carbonic anhydrase 14 [11] = molecular target: T10, Carbonic anhydrase 14 (Homo sapiens, UniProt Q9ULX7); test: Inhibition of human carbonic anhydrase 14 preincubated for 15 mins by stopped flow CO2 hydrase assay
Carbonic anhydrase 4 [12] = molecular target: T2, Carbonic anhydrase 4; test: Inhibition of human carbonic anhydrase 4 at >100 uM preincubated for 15 mins by stopped flow CO2 hydrase assay
Carbonic anhydrase 1 [13] = molecular target: T8, Carbonic anhydrase 1; test: Inhibition of human carbonic anhydrase 1 at >100 uM preincubated for 15 mins by stopped flow CO2 hydrase assay
Target sequence in this assay (P00915 2-261 limits assumed): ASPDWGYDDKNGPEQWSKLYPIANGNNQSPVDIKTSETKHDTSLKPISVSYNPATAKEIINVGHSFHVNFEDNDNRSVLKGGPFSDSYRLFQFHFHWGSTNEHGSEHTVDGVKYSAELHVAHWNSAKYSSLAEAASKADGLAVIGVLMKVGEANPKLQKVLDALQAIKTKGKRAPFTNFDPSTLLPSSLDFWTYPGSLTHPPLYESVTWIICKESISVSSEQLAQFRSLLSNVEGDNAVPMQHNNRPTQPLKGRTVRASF

Carbonic anhydrase 14 [14] = molecular target: T10, Carbonic anhydrase 14; test: Inhibition of human carbonic anhydrase 14 at >100 uM preincubated for 15 mins by stopped flow CO2 hydrase assay
[15] = molecular target: T4, Carbonic anhydrase 5A, mitochondrial; test: Inhibition of human carbonic anhydrase 5a preincubated for 15 mins by stopped flow CO2 hydrase assay
[16] = molecular target: T1, Carbonic anhydrase 5B, mitochondrial; test: Inhibition of human carbonic anhydrase 5b preincubated for 15 mins by stopped flow CO2 hydrase assay
Carbonic anhydrase 12 [17] = molecular target: T7, Carbonic anhydrase 12; test: Inhibition of human carbonic anhydrase 12 preincubated for 15 mins by stopped flow CO2 hydrase assay
Carbonic anhydrase 3 [18] = molecular target: T6, Carbonic anhydrase 3; test: Inhibition of human carbonic anhydrase 3 at >100 uM preincubated for 15 mins by stopped flow CO2 hydrase assay
Carbonic anhydrase 9 [19] = molecular target: T5, Carbonic anhydrase 9; test: Inhibition of human carbonic anhydrase 9 preincubated for 15 mins by stopped flow CO2 hydrase assay
Carbonic anhydrase 2 [20] = molecular target: T9, Carbonic anhydrase 2; test: Inhibition of human carbonic anhydrase 2 preincubated for 15 mins by stopped flow CO2 hydrase assay
Carbonic anhydrase 7 [21] = molecular target: T3, Carbonic anhydrase 7; test: Inhibition of human carbonic anhydrase 7 preincubated for 15 mins by stopped flow CO2 hydrase assay

T2 sequence (P22748 whole entry): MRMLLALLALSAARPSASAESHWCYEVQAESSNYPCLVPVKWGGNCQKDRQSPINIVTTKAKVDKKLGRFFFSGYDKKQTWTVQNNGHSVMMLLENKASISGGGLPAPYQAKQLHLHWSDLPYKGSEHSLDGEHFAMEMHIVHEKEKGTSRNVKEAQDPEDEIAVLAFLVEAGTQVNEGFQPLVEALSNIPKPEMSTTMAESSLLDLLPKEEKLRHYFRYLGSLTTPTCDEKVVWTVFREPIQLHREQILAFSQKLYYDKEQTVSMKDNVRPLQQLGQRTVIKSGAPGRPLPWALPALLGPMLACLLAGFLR
T3 sequence (P43166 whole entry): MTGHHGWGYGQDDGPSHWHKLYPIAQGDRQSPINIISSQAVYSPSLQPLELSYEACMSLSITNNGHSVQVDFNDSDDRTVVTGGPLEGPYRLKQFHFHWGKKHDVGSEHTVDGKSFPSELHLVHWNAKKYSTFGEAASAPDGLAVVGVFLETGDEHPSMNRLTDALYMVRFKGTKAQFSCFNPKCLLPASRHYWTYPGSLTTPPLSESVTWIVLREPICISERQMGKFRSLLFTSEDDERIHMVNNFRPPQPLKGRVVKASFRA
T4 sequence (P35218 whole entry): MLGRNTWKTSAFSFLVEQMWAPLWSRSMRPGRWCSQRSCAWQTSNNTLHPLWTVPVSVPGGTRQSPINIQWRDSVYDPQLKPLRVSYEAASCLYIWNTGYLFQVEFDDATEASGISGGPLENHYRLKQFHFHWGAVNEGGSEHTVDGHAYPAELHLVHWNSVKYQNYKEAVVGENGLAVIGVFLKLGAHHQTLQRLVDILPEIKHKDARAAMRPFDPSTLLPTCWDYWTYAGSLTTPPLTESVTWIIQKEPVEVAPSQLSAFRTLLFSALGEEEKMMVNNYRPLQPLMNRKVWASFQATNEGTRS
Chain of Carbonic anhydrase 6 (Homo sapiens) (P23280 whole entry): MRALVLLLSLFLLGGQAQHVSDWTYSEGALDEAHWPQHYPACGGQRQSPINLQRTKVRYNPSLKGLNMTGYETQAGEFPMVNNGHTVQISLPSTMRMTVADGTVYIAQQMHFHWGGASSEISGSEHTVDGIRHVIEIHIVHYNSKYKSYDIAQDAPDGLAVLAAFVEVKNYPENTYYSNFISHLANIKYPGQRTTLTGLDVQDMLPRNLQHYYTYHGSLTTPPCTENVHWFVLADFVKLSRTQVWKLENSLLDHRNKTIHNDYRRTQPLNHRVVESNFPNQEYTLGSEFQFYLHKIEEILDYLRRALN
T10 sequence (Q9ULX7 whole entry): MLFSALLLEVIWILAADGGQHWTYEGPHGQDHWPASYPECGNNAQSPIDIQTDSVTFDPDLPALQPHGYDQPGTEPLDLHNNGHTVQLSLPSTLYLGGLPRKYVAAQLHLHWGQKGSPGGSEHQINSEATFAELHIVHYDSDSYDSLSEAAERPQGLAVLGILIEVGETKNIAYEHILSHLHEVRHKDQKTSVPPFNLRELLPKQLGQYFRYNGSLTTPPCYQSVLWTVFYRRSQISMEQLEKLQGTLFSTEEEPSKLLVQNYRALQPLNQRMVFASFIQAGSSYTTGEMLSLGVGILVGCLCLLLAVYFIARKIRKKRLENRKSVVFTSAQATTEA
T1 sequence (Q9Y2D0 whole entry): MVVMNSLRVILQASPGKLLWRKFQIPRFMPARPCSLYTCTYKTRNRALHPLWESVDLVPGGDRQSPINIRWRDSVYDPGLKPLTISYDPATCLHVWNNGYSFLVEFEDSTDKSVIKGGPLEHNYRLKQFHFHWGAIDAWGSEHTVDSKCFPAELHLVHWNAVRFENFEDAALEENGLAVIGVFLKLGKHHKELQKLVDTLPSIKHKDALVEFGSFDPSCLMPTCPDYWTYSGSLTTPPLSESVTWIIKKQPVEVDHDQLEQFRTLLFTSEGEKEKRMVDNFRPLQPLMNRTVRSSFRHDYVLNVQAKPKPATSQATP
T7 sequence (O43570 whole entry): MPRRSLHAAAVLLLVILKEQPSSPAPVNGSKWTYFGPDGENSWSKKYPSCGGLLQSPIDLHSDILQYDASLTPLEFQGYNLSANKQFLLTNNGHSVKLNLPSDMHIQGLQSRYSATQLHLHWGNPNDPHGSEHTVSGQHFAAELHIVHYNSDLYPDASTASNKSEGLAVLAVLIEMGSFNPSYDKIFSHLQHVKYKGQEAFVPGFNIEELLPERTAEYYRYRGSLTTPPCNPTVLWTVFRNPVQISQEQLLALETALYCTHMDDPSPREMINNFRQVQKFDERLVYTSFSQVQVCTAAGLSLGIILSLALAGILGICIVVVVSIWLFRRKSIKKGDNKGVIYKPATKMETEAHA
Chain of Carbonic anhydrase 13 (Q9D6N1 whole entry): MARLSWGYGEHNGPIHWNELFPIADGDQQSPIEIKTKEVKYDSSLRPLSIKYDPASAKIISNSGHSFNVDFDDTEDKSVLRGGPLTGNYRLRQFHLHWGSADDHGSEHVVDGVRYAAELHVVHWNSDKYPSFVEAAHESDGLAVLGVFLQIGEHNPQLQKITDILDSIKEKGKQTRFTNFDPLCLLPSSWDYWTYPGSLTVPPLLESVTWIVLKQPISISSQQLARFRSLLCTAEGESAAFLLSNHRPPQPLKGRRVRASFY
T6 sequence (P07451 whole entry): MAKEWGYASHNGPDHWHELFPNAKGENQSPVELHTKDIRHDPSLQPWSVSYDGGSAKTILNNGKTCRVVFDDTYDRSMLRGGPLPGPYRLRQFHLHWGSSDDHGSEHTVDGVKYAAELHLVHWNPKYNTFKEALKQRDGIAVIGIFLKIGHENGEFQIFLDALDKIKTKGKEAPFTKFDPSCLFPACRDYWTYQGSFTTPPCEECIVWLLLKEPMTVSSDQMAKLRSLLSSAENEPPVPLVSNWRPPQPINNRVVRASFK

Row | inhibition [1] | Ki (Carbonic anhydrase 4 [2]) [µM] | inhibition (Carbonic anhydrase 7 [3]) | inhibition [4] | inhibition (Carbonic anhydrase 9 [5]) | Ki (Carbonic anhydrase 3 [6]) [µM] | Ki (Carbonic anhydrase 13) [µM] | inhibition (Carbonic anhydrase 12 [7]) | Ki (Carbonic anhydrase 1 [8]) [µM] | inhibition (Carbonic anhydrase 2 [9]) | inhibition [10] | Ki (Carbonic anhydrase 14 [11]) [µM] | inhibition (Carbonic anhydrase 4 [12]) | inhibition (Carbonic anhydrase 1 [13]) | inhibition (Carbonic anhydrase 14 [14]) | Ki [15] [µM] | Ki [16] [µM] | Ki (Carbonic anhydrase 12 [17]) [µM] | inhibition (Carbonic anhydrase 3 [18]) | Ki (Carbonic anhydrase 9 [19]) [µM] | SMILES | further results
1 | inactive | 9.61 | inactive | inactive | inactive | 10.3 | 9.27 | inactive | 5.48 | inactive | inactive | 9.34 | – | – | – | – | – | – | – | – | O=C1C=CC[C@H](C[C@@H](O)CCc2ccc(O)cc2)O1 | –
2 | inactive | – | inactive | inactive | inactive | 5.13 | 0.34 | inactive | – | inactive | inactive | – | inactive | inactive | inactive | – | – | – | – | – | O=C1C[C@H]2C[C@H](C[C@H](CCc3ccc(O)cc3O)O2)O1 | –
3 | – | 4.12 | inactive | – | – | – | 8.13 | – | 0.38 | inactive | inactive | 7.24 | – | – | – | 21.6 | 13.7 | 24.5 | inactive | 32.6 | O=C1C=CC[C@H](C[C@@H](O)CCc2ccc(O)cc2O)O1 | –
4 | – | 5.36 | – | – | – | – | 0.96 | – | 0.13 | – | inactive | 2.44 | – | – | – | 7.13 | 1.36 | 1.48 | inactive | 3.57 | O=C1C=CC[C@H](C[C@H](F)CCc2ccc(O)cc2)O1 | Ki (Carbonic anhydrase 2 [20]): 36.9 µM; Ki (Carbonic anhydrase 7 [21]): 24.9 µM
5 | inactive | – | inactive | inactive | inactive | 10.8 | 0.91 | inactive | – | inactive | inactive | – | inactive | inactive | inactive | – | – | – | – | – | O=C1C[C@H]2C[C@H](C[C@H](CCc3ccc(O)cc3)O2)O1 | –
6 | – | 13.7 | inactive | – | – | – | 7.89 | – | 0.76 | – | inactive | 12.5 | – | – | – | 8.55 | 6.32 | 10.8 | inactive | 15.7 | O=C1C=CC[C@H](C[C@@H](O)CCc2cc(Br)c(O)cc2Br)O1 | Ki (Carbonic anhydrase 2 [20]): 21.8 µM
